Measured values published in ChEMBL document CHEMBL1152367, “Discovery and functional evaluation of diverse novel human CB(1) receptor ligands” (Bioorg Med Chem Lett, 2009).

Columns and labels:
Cannabinoid receptor 1 [1] = target: T1, Cannabinoid receptor 1 (Homo sapiens, UniProt P21554); assay: Displacement of [3H]rimonabant from human CB1 receptor expressed in HEK293 cells assessed as signal point inhibition at 10 uM by liquid scintillation counting; type: cell-based
Cannabinoid receptor 1 [2] = target: T1, Cannabinoid receptor 1; assay: biochemical; type: cell-based, HEK293
Cannabinoid receptor 1 [3] = target: T1, Cannabinoid receptor 1; assay: Inverse agonist activity at human CB1 receptor by [35S]GTPgammaS incorporation assay relative to rimonabant; type: functional; parameters: concentration or dose not given beside the values
Cannabinoid receptor 1 [4] = target: T1, Cannabinoid receptor 1; assay: Inverse agonist activity at human CB1 receptor by [35S]GTPgammaS incorporation assay; type: functional
Homo sapiens = species: Homo sapiens; assay: Selectivity ratio of Ki for human CB2 receptor to Ki for human CB1 receptor
Cannabinoid receptor 2 = Cannabinoid receptor 2 (Homo sapiens, UniProt P34972); assay: Displacement of [3H]rimonabant from human CB2 receptor expressed in HEK293 cells by liquid scintillation counting; type: cell-based
Chain of Cannabinoid receptor 2 (P34972 whole entry): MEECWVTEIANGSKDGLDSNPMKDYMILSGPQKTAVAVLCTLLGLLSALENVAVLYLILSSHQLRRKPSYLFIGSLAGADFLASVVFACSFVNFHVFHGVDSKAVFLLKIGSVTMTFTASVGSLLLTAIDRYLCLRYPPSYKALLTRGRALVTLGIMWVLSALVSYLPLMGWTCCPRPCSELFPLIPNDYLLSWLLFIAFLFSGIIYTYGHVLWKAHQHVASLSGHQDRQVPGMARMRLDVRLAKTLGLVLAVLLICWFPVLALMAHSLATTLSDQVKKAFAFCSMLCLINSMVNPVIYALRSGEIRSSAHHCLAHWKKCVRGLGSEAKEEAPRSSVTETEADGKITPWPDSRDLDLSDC

T1 sequence (P21554 whole entry): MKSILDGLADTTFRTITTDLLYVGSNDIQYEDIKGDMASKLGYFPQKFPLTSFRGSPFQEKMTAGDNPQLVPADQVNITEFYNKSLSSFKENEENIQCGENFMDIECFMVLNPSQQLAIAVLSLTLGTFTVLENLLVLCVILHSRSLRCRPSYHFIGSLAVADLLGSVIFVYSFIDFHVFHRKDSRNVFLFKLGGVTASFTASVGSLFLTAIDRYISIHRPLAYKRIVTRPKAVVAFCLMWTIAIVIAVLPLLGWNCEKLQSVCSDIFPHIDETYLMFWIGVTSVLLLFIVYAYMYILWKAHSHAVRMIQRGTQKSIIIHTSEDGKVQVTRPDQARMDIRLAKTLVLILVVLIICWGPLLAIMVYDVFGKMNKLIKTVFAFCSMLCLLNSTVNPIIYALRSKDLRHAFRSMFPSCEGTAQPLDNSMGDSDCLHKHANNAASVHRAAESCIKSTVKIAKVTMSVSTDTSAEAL

| Compound | inhibition (Cannabinoid receptor 1 [1]) | Ki (Cannabinoid receptor 1 [2]) | Activity (Cannabinoid receptor 1 [3]) | EC50 (Cannabinoid receptor 1 [4]) | Ratio Ki (Homo sapiens) | Ki (Cannabinoid receptor 2) |
| --- | --- | --- | --- | --- | --- | --- |
| Cc1ccc(C(=O)n2cc(/C=N/Nc3nc(N4CCOCC4)nc(N4CCOCC4)n3)c3ccccc32)cc1 | 85% | 2300 nM | – | – | – | – |
| CC(C)N(CC(=O)N1c2ccccc2-n2cccc2C1c1ccc(F)cc1)C(=O)CC(C)(C)C (configuration not stated) | 64% | 1030 nM | 77% | 1100 nM | – | – |
| CCN(Cc1ccccc1)C(=O)c1oc2ccc(S(=O)(=O)N3CC(C)CC(C)C3)cc2c1C (configuration not stated) | – | – | 95% | 300 nM | 33.7 | – |
| CC(C)CN(CC(=O)N1CCc2sccc2C1c1ccc(F)cc1)C(=O)c1ccco1 (configuration not stated) | 89% | 875 nM | 105% | 4400 nM | – | – |
| Cc1cc(-c2ccccc2)n(Cc2ccccc2)c(=O)c1S(=O)(=O)c1ccccc1 | 73% | 2720 nM | – | – | – | – |
| CC(C)(C)c1ccc(C(=O)N2C(C(=O)NCc3ccccn3)CSC2c2cccc(F)c2)cc1 (configuration not stated) | 62% | 7490 nM | – | – | – | – |
| COc1ccccc1N1CCN(C(=O)C(C)Sc2nc(-c3ccccc3)cc(C(F)(F)F)n2)CC1 (configuration not stated) | 80% | 2310 nM | – | – | – | – |
| CC(C)NC(=O)C(C)Sc1nnc2c3ccccc3n(Cc3ccccc3)c2n1 (configuration not stated) | 86% | 2270 nM | – | – | – | – |
| CS/C(=N\S(=O)(=O)c1ccc(-n2nc(C(F)(F)F)cc2-c2cccs2)cc1)N1CCCC1 | 63% | 1000 nM | – | – | – | – |
| COc1ccc(-c2cc(C(=O)N3CCN(C(C)=O)CC3)n(-c3cccc(C)c3)n2)c(OC)c1 | 77% | 1940 nM | – | – | – | – |
| CCOC(=O)N1CC=C2C(C1)C1(C(=O)N(Cc3ccccc3)c3ccccc31)C(C#N)=C(N)C2(C#N)C#N (configuration not stated) | 82% | 1090 nM | – | – | – | – |
| CCCNC(=O)N1CCN(c2nc(Cc3ccccc3)c3c(c2C#N)CC(C)(C)OC3)CC1 | 81% | 3950 nM | – | – | – | – |
| O=C(c1ccc(-n2cnnn2)cc1)N(c1ccccc1)C1(C(=O)Nc2ccccc2)CCCCC1 | 71% | 1050 nM | – | – | – | – |
| Cc1ccc(Cc2nsc(N3CCCN(C(=O)Nc4c(C(C)C)cccc4C(C)C)CC3)n2)cc1 | 77% | 1760 nM | – | – | – | – |
| COc1ccc(C2c3ccsc3CCN2C(=O)CN(C(=O)C2CCCCC2)C(C)C)cc1 (configuration not stated) | 82% | 2590 nM | – | – | – | – |
| Cc1cccc(C)c1N(C(=O)c1ccccc1Cl)C(=O)C(c1ccc([N+](=O)[O-])cc1)N1CCOCC1 (configuration not stated) | 79% | 2780 nM | – | – | – | – |
| CC1CN(c2ncnc(NC(c3ccccc3)c3ccccc3)c2[N+](=O)[O-])CC(C)O1 (configuration not stated) | 67% | 1180 nM | – | – | – | – |
| Cc1ccc(C(C(=O)Nc2ccc3c(c2)OCCO3)N(C)C(=O)/C=C\c2ccc3c(c2)OCO3)cc1 (configuration not stated) | 71% | 1470 nM | – | – | – | – |
| COc1ccc(C2C(C(=O)Nc3cccc(C)n3)c3ccccc3C(=O)N2C2CCCCC2)cc1 (configuration not stated) | 69% | 2400 nM | – | – | – | – |
| COC(=O)c1c(C)oc(C)c1S(=O)(=O)N1CCN(C2c3ccccc3-c3ccccc32)CC1 | 87% | 1610 nM | – | – | – | – |

Other lines, results leading:

| inhibition (Cannabinoid receptor 1 [1]) | Ki (Cannabinoid receptor 1 [2]) | Activity (Cannabinoid receptor 1 [3]) | EC50 (Cannabinoid receptor 1 [4]) | Ratio Ki (Homo sapiens) | Ki (Cannabinoid receptor 2) | Compound |
| --- | --- | --- | --- | --- | --- | --- |
| 77% | 273 nM | – | – | – | – | CCOC(=O)CN1C(c2ccc(F)cc2)Nc2ccc(Br)cc2C1c1ccccc1 (configuration not stated) |
| 82% | 256 nM | 62% | 200 nM | > 39 | 10000 nM | O=C(Nc1ccccc1Oc1ccccc1)c1ccc(S(=O)(=O)N2CCc3ccccc32)cc1 |
| 85% | 264 nM | 91% | 1200 nM | > 37.9 | 10000 nM | COc1ccccc1NC(=O)C(C)Sc1nc(-c2ccc(C)cc2)nc2c1COC(C)(C)C2 (configuration not stated) |
| 77% | 611 nM | 50% | 500 nM | > 16.4 | 10000 nM | CC1CC(C)CN(S(=O)(=O)c2ccc(F)c(C(=O)NC(c3ccccc3)c3ccccc3)c2)C1 (configuration not stated) |
| 98% | 287 nM | 44% | 200 nM | 3.7 | 1070 nM | CCOC(=O)N1CCN(C(=O)c2cc(-c3ccccc3Cl)nn2-c2ccc(C)cc2C)CC1 |
| 90% | 227 nM | 81% | 600 nM | 17.3 | 3920 nM | COc1cccc(N2C(C(C)=O)=NN(c3ccc(Cl)cc3)C2c2ccc(N3CCOCC3)cc2)c1 (configuration not stated) |
| 94% | 325 nM | 60% | 400 nM | 0.2 | 58 nM | Cc1cc(C)c(OCC(=O)Nc2sc3c(c2C(=O)NC2CCS(=O)(=O)C2)CCCC3)c(C)c1 (configuration not stated) |
| 78% | 520 nM | 91% | 1100 nM | > 19.2 | 10000 nM | Cc1ccc(C2c3cccn3-c3ccccc3N2C(=O)CN(C(=O)C2CCCC2)C2CC2)cc1 (configuration not stated) |
| 73% | 520 nM | – | – | – | – | CC(C(=O)N1c2ccccc2C(C)(c2ccc(Cl)cc2)CC1(C)C)N1C(=O)C2CCCCC2C1=O (configuration not stated) |
| 95% | 308 nM | 103% | 1500 nM | 16.1 | 4950 nM | COc1ccc(C2c3cccn3-c3ccccc3N2C(=O)CN(C(=O)NC(C)(C)C)C(C)C)cc1 (configuration not stated) |
